± gives the standard deviation of the averaged measurements.
What was measured:
Settings in all cases: 72 h
Caco-2 [1] = assay: drug sensitivity score (DSS) for viability; higher = more toxic; extreme values may be limits of the assay
U2OS [2] = assay: as above
Vero E6 [3] = assay: as above
HepG2 [4] = assay: as above
Calu-3 [5] = assay: as above
Caco-2 [6] = assay: relative viability EC50 (midpoint between 100% and the lowest measured viability); higher = less toxic
U2OS [7] = assay: as above
Vero E6 [8] = assay: as above
HepG2 [9] = assay: as above
Calu-3 [10] = assay: as above
Caco-2 [11] = assay: cell viability relative to DMSO; higher = less toxic
U2OS [12] = assay: as above
Vero E6 [13] = assay: as above
HepG2 [14] = assay: as above
Calu-3 [15] = assay: as above

| SMILES | drug sensitivity score (Caco-2 [1]) | drug sensitivity score (U2OS [2]) | drug sensitivity score (Vero E6 [3]) | drug sensitivity score (HepG2 [4]) | drug sensitivity score (Calu-3 [5]) | relative viability EC50 (Caco-2 [6]) [µM] | relative viability EC50 (U2OS [7]) [µM] | relative viability EC50 (Vero E6 [8]) [µM] | relative viability EC50 (HepG2 [9]) [µM] | relative viability EC50 (Calu-3 [10]) [µM] | cell viability (Caco-2 [11]; 1 nM) [%] | cell viability (Caco-2 [11]; 10 nM) [%] | cell viability (Caco-2 [11]; 100 nM) [%] | cell viability (Caco-2 [11]; 1000 nM) [%] | cell viability (Caco-2 [11]; 10000 nM) [%] | cell viability (U2OS [12]; 1 nM) [%] | cell viability (U2OS [12]; 10 nM) [%] | cell viability (U2OS [12]; 100 nM) [%] | cell viability (U2OS [12]; 1000 nM) [%] | cell viability (U2OS [12]; 10000 nM) [%] | cell viability (Vero E6 [13]; 1 nM) [%] | cell viability (Vero E6 [13]; 10 nM) [%] | cell viability (Vero E6 [13]; 100 nM) [%] | cell viability (Vero E6 [13]; 1000 nM) [%] | cell viability (Vero E6 [13]; 10000 nM) [%] | cell viability (HepG2 [14]; 1 nM) [%] | cell viability (HepG2 [14]; 10 nM) [%] | cell viability (HepG2 [14]; 100 nM) [%] | cell viability (HepG2 [14]; 1000 nM) [%] | cell viability (HepG2 [14]; 10000 nM) [%] | cell viability (Calu-3 [15]; 1 nM) [%] | cell viability (Calu-3 [15]; 10 nM) [%] | cell viability (Calu-3 [15]; 100 nM) [%] | cell viability (Calu-3 [15]; 1000 nM) [%] | cell viability (Calu-3 [15]; 10000 nM) [%] |
| --- | --- | --- | --- | --- | --- | --- | --- | --- | --- | --- | --- | --- | --- | --- | --- | --- | --- | --- | --- | --- | --- | --- | --- | --- | --- | --- | --- | --- | --- | --- | --- | --- | --- | --- | --- |
| Oc1ccc2c3c1O[C@H]1c4oc5ccccc5c4C[C@@]4(O)[C@@H](C2)N(CC2CC2)CC[C@]314 [naltriben] | 0.3 | 0 | 0 | 0 | 0 | > 10 | > 10 | > 10 | > 10 | > 10 | 91.7 | 91.9 | 102 | 98.6 | 86.5 | 101 | 101 | 100 | 101 | 99.8 | 90.9 | 101 | 93.3 | 96.4 | 108 | 102 | 120 | 93.5 | 99.7 | 99 | 105 | 85.1 | 105 | 87.7 | 99.5 |
| Oc1ccc2c3c1O[C@H]1c4[nH]c5ccccc5c4C[C@@]4(O)[C@@H](C2)N(CC2CC2)CC[C@]314 [naltrindole] | 0 | 0 | 0 | 0 | 0.3 | > 10 | > 10 | > 10 | > 10 | > 10 | 102 | 94.6 | 98.1 | 96.5 | 106 | 98.7 | 100 | 102 | 111 | 97.9 | 95.9 | 102 | 105 | 95.4 | 92.1 | 103 | 97.7 | 101 | 106 | 91.7 | 98.5 | 98.5 | 103 | 101 | 83.9 |
| CN1C(=O)N[C@H](Cc2c[nH]c3c(Cl)cccc23)C1=O [necrostatin-2] | 0 | 0 | 0 | 0 | 0 | > 10 | > 10 | > 10 | > 10 | > 10 | 99 | 112 | 99.4 | 108 | 102 | 103 | 109 | 105 | 107 | 95.1 | 104 | 102 | 103 | 99.1 | 97.8 | 112 | 99.3 | 95.3 | 91.3 | 108 | 97.1 | 110 | 93.9 | 96.9 | 90.4 |
| CC[C@H]1[C@@H](O)[C@@H]2[C@H](CC[C@]3(C)[C@@H]([C@H](C)CCC(=O)O)CC[C@@H]23)[C@@]2(C)CC[C@@H](O)C[C@@H]12 [obeticholic-acid] | 0.25 ± 0.35 | 0 | 0 | 0 | 0 | > 10 | > 10 | > 10 | > 10 | > 10 | 98.7 ± 5.8 | 104 ± 4.4 | 95 ± 8.5 | 94.8 ± 1.6 | 95.5 ± 1.6 | 102 | 104 | 96.1 | 104 | 99.2 | 109 ± 20 | 94.8 ± 3.3 | 99.8 ± 12 | 97.3 ± 0.57 | 103 ± 7.1 | 100 ± 4.6 | 102 ± 17 | 95.5 ± 8.1 | 103 ± 3.2 | 104.8 ± 0.14 | 106 ± 6.7 | 100 ± 2.4 | 105.9 ± 0.57 | 97.5 ± 6.6 | 98.2 ± 7.2 |
| C=CC(=O)Nc1cc(Nc2nccc(-c3cn(C)c4ccccc34)n2)c(OC)cc1N(C)CCN(C)C [osimertinib] | 8.8 | 8 | 10.4 | 8.1 | 15.8 | 1.44 | 1.86 | 1.19 | 1.8 | 0.374 | 82.7 | 97.2 | 94.2 | 72.6 | 9.1 | 95.7 | 99.2 | 92.3 | 83.6 | 5 | 95.9 | 93.8 | 90.4 | 57.7 | 0 | 99.6 | 98.8 | 104 | 82.4 | 6 | 92.6 | 92.9 | 72.2 | 36.7 | 0.7 |
| CCN(CC)CCOCCOC(=O)C(CC)(CC)c1ccccc1 [oxelaidin] | 0 | 0 | 0 | 0.3 | 0 | > 10 | > 10 | > 10 | > 10 | > 10 | 106 | 85.5 | 95.9 | 107 | 97.3 | 96.9 | 92.6 | 94.3 | 107 | 101 | 94.2 | 95.9 | 102 | 99.9 | 104 | 104 | 103 | 104 | 95.6 | 87.1 | 99 | 95.8 | 94.8 | 94.5 | 99.7 |
| CCn1cc(C(=O)O)c(=O)c2cc(F)c(N3CCN(C)CC3)cc21 [pefloxacin] | 0 | 0 | 0 | 0 | 0 | > 10 | > 10 | > 10 | > 10 | > 10 | 94.5 | 80.2 | 104 | 89.5 | 94.1 | 104 | 94.8 | 98.4 | 96 | 96 | 96.8 | 101 | 94.2 | 95.3 | 90.4 | 88.6 | 100 | 106 | 99.3 | 94.6 | 100 | 97.8 | 97.2 | 83.3 | 99 |
| O=c1[nH]c2ccccc2c(=O)n1CCCN1CCN(c2ccccc2)CC1 [pelanserin] | 0 | 0 | 0 | 0 | 0 | > 10 | > 10 | > 10 | > 10 | > 10 | 101 | 102 | 94 | 103 | 91.7 | 97 | 104 | 95.6 | 95.2 | 94.8 | 104 | 105 | 102 | 105 | 95.5 | 91.1 | 93 | 95.7 | 107 | 93.6 | 94.5 | 96.2 | 103 | 102 | 116 |
| O=C(O)c1ccccc1C(=O)Nc1ccc(S(=O)(=O)Nc2nccs2)cc1 [phthalylsulfathiazole] | 0 | 0 | 0 | 0 | 0 | > 10 | > 10 | > 10 | > 10 | > 10 | 106 | 93.9 | 94.1 | 102 | 93.7 | 97.9 | 98 | 102 | 96.8 | 99.7 | 92.2 | 98.9 | 94.9 | 94.5 | 108 | 87.5 | 107 | 115 | 111 | 112 | 105 | 86.8 | 106 | 107 | 107 |
| O=C1CC[C@@H](C(=O)N2CSC[C@H]2C(=O)O)N1 [pidotimod] | 0 | 0 | 0 | 0 | 0 | > 10 | > 10 | > 10 | > 10 | > 10 | 102 | 91.6 | 106 | 102 | 92.7 | 93.9 | 93.3 | 101 | 99.9 | 106 | 97.8 | 101 | 94.8 | 101 | 107 | 98.4 | 101 | 101 | 105 | 106 | 97.4 | 104 | 97.3 | 96 | 102 |
| CN[C@@H](C)CC1CCCCC1 [propylhexedrine] | 0 | 0 | 0 | 0 | 0 | > 10 | > 10 | > 10 | > 10 | > 10 | 88 | 111 | 86 | 79.4 | 102 | 104 | 99.6 | 100 | 99.2 | 100 | 99.2 | 110 | 106 | 104 | 95.7 | 102 | 101 | 99.3 | 97.8 | 94.1 | 97.4 | 104 | 104 | 90.2 | 97.9 |
| CCC(=O)NCC[C@@H]1CCc2ccc3c(c21)CCO3 [ramelteon] | 0 | 0 | 0 | 0 | 0 | > 10 | > 10 | > 10 | > 10 | > 10 | 102 | 96.8 | 97.1 | 101 | 95.6 | 99.5 | 98.4 | 101 | 96.1 | 98.7 | 112 | 110 | 106 | 100 | 99.5 | 105 | 112 | 105 | 108 | 89 | 106 | 90.7 | 100 | 86.3 | 98.4 |
| CCn1nc(C)c2c1C(c1ccccc1)=NCC(=O)N2 [ripazepam] | 0 | 0 | 0 | 0 | 0 | > 10 | > 10 | > 10 | > 10 | > 10 | 96.9 | 103 | 104 | 101 | 124 | 96.4 | 99.1 | 93.2 | 102 | 98.2 | 95.6 | 99.9 | 104 | 100 | 97.1 | 106 | 100 | 98.9 | 92.2 | 113 | 97.4 | 102 | 95.6 | 109 | 95.8 |
| CN(C)CCc1c[nH]c2ccc(Cn3cncn3)cc12 [rizatriptan] | 0.2 | 0 | 0 | 0 | 0 | > 10 | > 10 | > 10 | > 10 | > 10 | 91.9 | 102 | 101 | 97.2 | 87.7 | 99 | 106 | 96.5 | 98.6 | 96.5 | 101 | 94.8 | 98.7 | 99.3 | 98.8 | 99 | 93.5 | 102 | 92.8 | 104 | 96.5 | 107 | 99.8 | 97.3 | 99.1 |

From the supplement of paper PMC13380429
